# Measurements reported in ChEMBL document CHEMBL1201862, “PubChem BioAssay data set” (2004).
#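 Cultured in 96-well plates, cells were exposed to test compound for 48 hours across five concentrations. At the GI50, growth is halved.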 Active and inactive are the calls of the source. Rule as the data show it: active = GI50 up to about 1.1 µM and inactive = higher.
# What was measured:
# Test in all cases: inhibition of tumour cell growth, NCI panel, 48 h
# [1] = tested on: 786-0
# [2] = tested on: A498
# [3] = tested on: ACHN
# [4] = tested on: BT-549
# [5] = tested on: CAKI-1
# [6] = tested on: CCRF-CEM
# [7] = tested on: COLO 205
# [8] = tested on: DU-145
# [9] = tested on: EKVX
# [10] = tested on: HCT-116
# [11] = tested on: HCT-15
# [12] = tested on: HL-60
# [13] = tested on: HOP-62
# [14] = tested on: HOP-92
# [15] = tested on: Hs-578T
# [16] = tested on: IGROV-1
# [17] = tested on: K562
# [18] = tested on: KM12
# [19] = tested on: LOX IMVI
# [20] = tested on: M14
# [21] = tested on: MCF7
# [22] = tested on: MDA-MB-231
# [23] = tested on: MDA-MB-435
# [24] = tested on: MDA-N
# [25] = tested on: MOLT-4
# [26] = tested on: NCI-H226
# [27] = tested on: NCI-H23
# [28] = tested on: NCI-H460
# [29] = tested on: NCI-H522
# [30] = tested on: NCI/ADR-RES
# [31] = tested on: OVCAR-3
# [32] = tested on: OVCAR-4
# [33] = tested on: OVCAR-5
# [34] = tested on: OVCAR-8
# [35] = tested on: PC-3
# [36] = tested on: RPMI-8226
# [37] = tested on: RXF 393
# [38] = tested on: SF-268
# [39] = tested on: SF-295
# [40] = tested on: SF-539
# [41] = tested on: SK-MEL-2
# [42] = tested on: SK-MEL-5
# [43] = tested on: SK-OV-3
# [44] = tested on: SN12C
# [45] = tested on: SNB-19
# [46] = tested on: SNB-75
# [47] = tested on: SR
# [48] = tested on: SW-620
# [49] = tested on: T47D
# [50] = tested on: TK-10
# [51] = tested on: U-251
# [52] = tested on: UACC-257
# [53] = tested on: UACC-62
# [54] = tested on: UO-31
# [55] = tested on: A549
# [56] = tested on: HCC 2998
# [57] = tested on: HT-29
# [58] = tested on: Malme-3M
# [59] = tested on: SK-MEL-28
structure (smiles),measurement,setting,value
Brc1cccc(/N=N/N2CCCC2)c1,GI50,[1],> 100 µM (inactive)
same,GI50,[2],> 100 µM (inactive)
same,GI50,[3],> 100 µM (inactive)
same,GI50,[4],68.9 µM (inactive)
same,GI50,[5],75.5 µM (inactive)
same,GI50,[6],49.2 µM (inactive)
same,GI50,[7],> 100 µM (inactive)
same,GI50,[8],> 100 µM (inactive)
same,GI50,[9],97.9 µM (inactive)
same,GI50,[10],92.3 µM (inactive)
same,GI50,[11],49.4 µM
same,GI50,[12],16.4 µM (inactive)
same,GI50,[13],> 100 µM (inactive)
same,GI50,[14],63.1 µM (inactive)
same,GI50,[15],> 100 µM (inactive)
same,GI50,[16],> 100 µM (inactive)
same,GI50,[17],48.9 µM (inactive)
same,GI50,[18],93.5 µM (inactive)
same,GI50,[19],77.1 µM (inactive)
same,GI50,[20],> 100 µM (inactive)
same,GI50,[21],> 100 µM (inactive)
same,GI50,[22],> 100 µM (inactive)
same,GI50,[23],> 100 µM (inactive)
same,GI50,[24],> 100 µM (inactive)
same,GI50,[25],71.8 µM (inactive)
same,GI50,[26],> 100 µM (inactive)
same,GI50,[27],67.9 µM (inactive)
same,GI50,[28],> 100 µM (inactive)
same,GI50,[29],68.9 µM (inactive)
same,GI50,[30],81.5 µM (inactive)
same,GI50,[31],> 100 µM (inactive)
same,GI50,[32],> 100 µM (inactive)
same,GI50,[33],> 100 µM (inactive)
same,GI50,[34],> 100 µM (inactive)
same,GI50,[35],71.3 µM (inactive)
same,GI50,[36],17.2 µM (inactive)
same,GI50,[37],> 100 µM (inactive)
same,GI50,[38],> 100 µM (inactive)
same,GI50,[39],97.5 µM (inactive)
same,GI50,[40],> 100 µM (inactive)
same,GI50,[41],> 100 µM (inactive)
same,GI50,[42],66.2 µM (inactive)
same,GI50,[43],> 100 µM (inactive)
same,GI50,[44],> 100 µM (inactive)
same,GI50,[45],> 100 µM (inactive)
same,GI50,[46],65.5 µM (inactive)
same,GI50,[47],27.4 µM (inactive)
same,GI50,[48],> 100 µM (inactive)
same,GI50,[49],50.2 µM (inactive)
same,GI50,[50],> 100 µM (inactive)
same,GI50,[51],80.5 µM (inactive)
same,GI50,[52],> 100 µM (inactive)
same,GI50,[53],> 100 µM (inactive)
same,GI50,[54],56.1 µM (inactive)
O=[N+]([O-])c1ccc2nc(Cl)n[n+]([O-])c2c1,GI50,[1],8.3 µM (inactive)
same,GI50,[2],0.65 µM (active)
same,GI50,[55],22 µM (inactive)
same,GI50,[3],14 µM (inactive)
same,GI50,[4],16.2 µM (inactive)
same,GI50,[5],16 µM (inactive)
same,GI50,[6],1.06 µM (active)
same,GI50,[7],9.04 µM (inactive)
same,GI50,[8],17.9 µM (inactive)
same,GI50,[9],18.5 µM (inactive)
same,GI50,[56],16.3 µM (inactive)
same,GI50,[10],12.7 µM (inactive)
same,GI50,[11],13.4 µM
same,GI50,[12],0.668 µM (active)
same,GI50,[13],17.1 µM (inactive)
same,GI50,[57],11.7 µM (inactive)
same,GI50,[15],37 µM (inactive)
same,GI50,[16],10.3 µM (inactive)
same,GI50,[17],1.15 µM (inactive)
same,GI50,[18],23.2 µM (inactive)
same,GI50,[19],1.8 µM (inactive)
same,GI50,[20],14.3 µM (inactive)
same,GI50,[21],5.52 µM (inactive)
same,GI50,[22],11.7 µM (inactive)
same,GI50,[23],13.8 µM (inactive)
same,GI50,[24],11.6 µM (inactive)
same,GI50,[25],1.15 µM (inactive)
same,GI50,[58],15.9 µM (inactive)
same,GI50,[26],19.6 µM (inactive)
same,GI50,[27],15.3 µM (inactive)
same,GI50,[28],20.3 µM (inactive)
same,GI50,[29],12 µM (inactive)
same,GI50,[30],24.3 µM (inactive)
same,GI50,[31],7.43 µM (inactive)
same,GI50,[32],12.2 µM (inactive)
same,GI50,[33],17 µM (inactive)
same,GI50,[34],15.2 µM (inactive)
same,GI50,[35],13 µM (inactive)
same,GI50,[36],2.89 µM (inactive)
same,GI50,[37],15.1 µM (inactive)
same,GI50,[38],14.1 µM (inactive)
same,GI50,[39],22.7 µM (inactive)
same,GI50,[40],11.7 µM (inactive)
same,GI50,[59],18.3 µM (inactive)
same,GI50,[41],15.2 µM (inactive)
same,GI50,[42],6.68 µM (inactive)
same,GI50,[43],17.5 µM (inactive)
same,GI50,[44],16.1 µM (inactive)
same,GI50,[45],25.5 µM (inactive)
same,GI50,[46],14.4 µM (inactive)
same,GI50,[47],2.2 µM (inactive)
same,GI50,[48],12.4 µM (inactive)
same,GI50,[49],16.8 µM (inactive)
same,GI50,[50],16.8 µM (inactive)
same,GI50,[51],16.6 µM (inactive)
same,GI50,[52],15.4 µM (inactive)
same,GI50,[53],14 µM (inactive)
same,GI50,[54],17 µM (inactive)
